Measured values: patent publication US12122761B2, “2-azaspiro[3.4]octane derivatives as M4 agonists” (NOVARTIS AG, priority 2019, dated 2024)

Key:
[1] = target: T1, human cloned CHRM4 receptor (M4_CHO cells) (Homo sapiens, UniProt P08173); test: CHRM4 Ca++ Flux Assay (agonist mode, FDSS 7000EX); type: cell-based; conditions: for M4 FDSS PA: Percent Activity; for EC50: geometric mean if tested more than once, read-out: M4 FDSS EC50
T1 construct: expressed in transfected cells; host or cells: CHO-K1
T1 sequence (P08173 1-479): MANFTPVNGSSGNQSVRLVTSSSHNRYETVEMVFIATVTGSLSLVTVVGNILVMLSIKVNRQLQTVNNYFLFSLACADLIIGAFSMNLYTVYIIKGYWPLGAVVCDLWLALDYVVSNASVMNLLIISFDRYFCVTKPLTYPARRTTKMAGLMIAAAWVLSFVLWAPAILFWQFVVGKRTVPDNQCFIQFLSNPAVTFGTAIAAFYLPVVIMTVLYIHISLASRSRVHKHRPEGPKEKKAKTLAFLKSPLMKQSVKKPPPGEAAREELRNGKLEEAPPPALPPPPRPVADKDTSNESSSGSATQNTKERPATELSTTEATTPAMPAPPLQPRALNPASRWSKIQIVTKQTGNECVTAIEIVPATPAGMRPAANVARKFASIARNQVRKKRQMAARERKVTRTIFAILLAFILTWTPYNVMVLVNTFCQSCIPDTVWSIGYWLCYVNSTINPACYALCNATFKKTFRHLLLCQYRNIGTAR
Procedure: The above examples were characterized by measuring the intracellular mobilization of Ca++ ions caused by signaling events mediated by the receptor. The Intra-cellular Calcium flux levels were captured by the highly sensitive Ca++ indicator, Calcium Assay Kit (BD Biosciences, Catalog Number 640178). The fluorescent activity from all receptors were monitored by the fluorescent imager, FDSS 7000EX (Hamamatsu) over a span of 3 minutes.
CHO-K1 cells stably expressing the human cloned CHRM4 receptor (M4_CHO cells) were grown and maintained in a monolayer culture with F12/HAM (Life Technologies) supplemented with 10% Fetal Bovine Serum, 1× Pen-Strep, and 0.4 mg/mL Geneticin in a humidified atmosphere (5% CO2) at 37° C. The cultures were grown to 80-90% confluency in T150 flasks (Corning) and washed with 1×DPBS then lifted with 0.05% Trypsin (Life Technologies). The cells were harvested in growth media then spun (1K rpm, 3 minutes) and cryopreserved using Recovery Cell Culture Freezing Media (Gibco Technologies). Cells were stored in liquid nitrogen and thawed a day before the assay.
Prior to the day of the assay, stable M4_CHO cells were thawed and plated on 384 well black walled clear bottom TC treated plates (Greiner Cat #781091) at 12K cells/well using F12/HAM Media supplemented with 10% FBS (Life Technologies) and kept overnight in a humidified atmosphere (5% CO2) at 37° C. The next day, cells were loaded with […] Ca^++ dye (BD Biosciences) using Loading Buffer (HBSS +Ca/+Mg, 20 mM HEPES, 2.5 mM Probenecid) and placed back in cell incubator for a minimum of 1 hour. After incubation, the dye was replaced with 45 μL Assay Buffer (HBSS −Ca/−Mg, 20 mM HEPES, 2.5 mM Probenecid) supplemented with 20 μM ATP (Sigma Aldrich) and kept at room temperature in the dark for 60 minutes before running on a cell imager. The FDSS 7000EX (Hamamatsu) was used to capture Ca^++ traces for a span of 3 minutes from cells treated with 11 point dose of compound in triplicate in order to generate dose response curves in agonist mode. All compounds were serially diluted in DMSO then prepared in Assay Buffer for Ca^++ flux studies. The dose response curves were generated from the average of triplicate wells obtained from each data point and used a non-linear regression of four parameter dose response algorithm. The Percent Activity (PA) was measured to EC100 of Carbachol.

[2] = target: T2, human cloned CHRM3 receptor (M3_CHO cells) (Homo sapiens, UniProt P20309); test: CHRM3 Ca++ Flux Assay (agonist mode, FDSS 7000EX); type: cell-based; conditions: for M3 FDSS PA: Percent Activity measured to EC100 of Carbachol; for EC50: agonist mode, geometric mean if tested more than once, read-out: M3 FDSS EC50
T2 construct: expressed in transfected cells; host or cells: CHO-K1
Outline: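 Stable CHO-K1 lines (human M3 or M5), calcium-dye loaded ≥1 h, assayed in Ca/Mg-free HBSS + 20 mM HEPES + 2.5 mM probenecid. 11-pt dose response, triplicate, 3 min fluorescence read. 4-parameter regression; % activity vs carbachol EC100.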

T2 sequence (P20309 whole entry): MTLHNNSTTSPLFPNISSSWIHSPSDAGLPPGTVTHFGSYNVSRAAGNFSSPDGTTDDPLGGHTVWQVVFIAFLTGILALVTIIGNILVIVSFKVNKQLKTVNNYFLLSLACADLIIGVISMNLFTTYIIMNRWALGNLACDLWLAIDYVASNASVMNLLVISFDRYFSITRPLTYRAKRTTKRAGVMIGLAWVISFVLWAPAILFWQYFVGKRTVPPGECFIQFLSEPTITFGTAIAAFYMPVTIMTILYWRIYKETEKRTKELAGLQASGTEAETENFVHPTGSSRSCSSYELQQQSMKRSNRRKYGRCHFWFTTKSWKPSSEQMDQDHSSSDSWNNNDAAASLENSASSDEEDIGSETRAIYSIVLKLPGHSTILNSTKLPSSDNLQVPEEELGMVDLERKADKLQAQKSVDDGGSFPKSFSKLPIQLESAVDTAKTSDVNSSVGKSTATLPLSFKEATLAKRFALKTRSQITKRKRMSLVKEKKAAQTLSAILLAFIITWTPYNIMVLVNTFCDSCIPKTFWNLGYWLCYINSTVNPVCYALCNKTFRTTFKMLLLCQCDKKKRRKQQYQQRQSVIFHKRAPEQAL

| SMILES | M4 FDSS PA [1] [%] | EC50 [1] [nM] | M3 FDSS PA [2] [%] | EC50 [2] [nM] |
| --- | --- | --- | --- | --- |
| Cc1nnc(COc2ccccc2C2CCN([C@@H]3CCC4(C3)CN(C(=O)C3(F)CC3)C4)CC2)o1 (single isomer, unassigned) [Example 7Y, (R)-(1-fluorocyclopropyl)(6-(4-(2-((5-methyl-1,3,4-oxadiazol-2-yl)methoxy)phenyl)piperidin-1-yl)-2-azaspiro[3.4]octan-2-yl)methanone or (S)-(1-fluorocyclopropyl)(6-(4-(2-((5-methyl-1,3,4-oxadiazol-2-yl)methoxy)phenyl)piperidin-1-yl)-2-azaspiro[3.4]octan-2-yl)methanone] | 49 | 22 | 0 | > 25000 |
| Cc1nc(COc2ccccc2C2CCN([C@@H]3CCC4(C3)CN(C(=O)C3(F)CC3)C4)CC2)no1 (single isomer, unassigned) [Example 7Z, (R)-(1-fluorocyclopropyl)(6-(4-(2-((5-methyl-1,2,4-oxadiazol-3-yl)methoxy)phenyl)piperidin-1-yl)-2-azaspiro[3.4]octan-2-yl)methanone or (S)-(1-fluorocyclopropyl)(6-(4-(2-((5-methyl-1,2,4-oxadiazol-3-yl)methoxy)phenyl)piperidin-1-yl)-2-azaspiro[3.4]octan-2-yl)methanone] | 50 | 9 | 0 | > 25000 |
| COc1ccc(Cl)cc1C1CCN([C@H]2CCC3(C2)CN(C(=O)C2(F)CC2)C3)CC1 (single isomer, unassigned) [Example 8A, (S)-(6-(4-(5-chloro-2-methoxyphenyl)piperidin-1-yl)-2-azaspiro[3.4]octan-2-yl)(1-fluorocyclopropyl)methanone or (R)-(6-(4-(5-chloro-2-methoxyphenyl)piperidin-1-yl)-2-azaspiro[3.4]octan-2-yl)(1-fluorocyclopropyl)methanone] | 43 | 36 | 0 | > 25000 |
| COc1ccc(Cl)cc1C1CCN([C@H]2CCC3(C2)CN(C(=O)C2(F)CC2)C3)CC1 (single isomer, unassigned) [Example 8B, (S)-(6-(4-(5-chloro-2-methoxyphenyl)piperidin-1-yl)-2-azaspiro[3.4]octan-2-yl)(1-fluorocyclopropyl)methanone or (R)-(6-(4-(5-chloro-2-methoxyphenyl)piperidin-1-yl)-2-azaspiro[3.4]octan-2-yl)(1-fluorocyclopropyl)methanone] | 64 | 1 | 0 | > 25000 |
| O=C(N1CC2(CC[C@@H](N3CCC(c4ccccc4OC(F)(F)F)CC3)C2)C1)C1(F)CC1 (single isomer, unassigned) [Example 9A, (R)-(1-fluorocyclopropyl)(6-(4-(2-(trifluoromethoxy)phenyl)piperidin-1-yl)-2-azaspiro[3.4]octan-2-yl)methanone or (S)-(1-fluorocyclopropyl)(6-(4-(2-(trifluoromethoxy)phenyl)piperidin-1-yl)-2-azaspiro[3.4]octan-2-yl)methanone] | 36 | 342 | 0 | > 25000 |
| O=C(N1CC2(CC[C@@H](N3CCC(c4ccccc4OC(F)(F)F)CC3)C2)C1)C1(F)CC1 (single isomer, unassigned) [Example 9B, (R)-(1-fluorocyclopropyl)(6-(4-(2-(trifluoromethoxy)phenyl)piperidin-1-yl)-2-azaspiro[3.4]octan-2-yl)methanone or (S)-(1-fluorocyclopropyl)(6-(4-(2-(trifluoromethoxy)phenyl)piperidin-1-yl)-2-azaspiro[3.4]octan-2-yl)methanone] | 66 | 5 | 0 | > 25000 |
